How the values were obtained:
HCT116 p53+/+ = test: Quantification of cellular ATP levels (CellTiterGlo); assay type: cell-based, human; details: for ATP levels relative to vehicle control: 20h; for % ATP Activity (Average): HCT116 p53+/+ cells, average of runs, relative to 0 µM = 100
Experimental: (§1) ARPE-19 and HCT116 p53^+/+ cells were seeded in 96-well opaque plates at a density of 7500 cells/well. 24 h after seeding, cells were treated for 20 h with a range of concentrations of [[…]]^6+, [L2Zn3]^6+, [[…]]^6+, or vehicle control (2-fold serial dilution from 100-3.125 μM) before determining total cellular ATP content by quantification of luminescence (CellTiterGlo® assay, Promega). ATP levels were normalised relative to levels in vehicle control-treated cells.

ARPE-19 = test: as above; assay type: cell-based, human; details: for % ATP Activity (Average): ARPE-19 cells, average of runs, relative to 0 µM = 100
Experimental: as §1

[1] = molecular target: 140 purified human kinases (Homo sapiens, UniProt P68400); test: Kinase inhibition screen, cell-free 33P ATP assay at 10 μM; assay type: biochemical
Sequence of 140 purified human kinases (Homo sapiens, UniProt P68400) (P68400 whole entry): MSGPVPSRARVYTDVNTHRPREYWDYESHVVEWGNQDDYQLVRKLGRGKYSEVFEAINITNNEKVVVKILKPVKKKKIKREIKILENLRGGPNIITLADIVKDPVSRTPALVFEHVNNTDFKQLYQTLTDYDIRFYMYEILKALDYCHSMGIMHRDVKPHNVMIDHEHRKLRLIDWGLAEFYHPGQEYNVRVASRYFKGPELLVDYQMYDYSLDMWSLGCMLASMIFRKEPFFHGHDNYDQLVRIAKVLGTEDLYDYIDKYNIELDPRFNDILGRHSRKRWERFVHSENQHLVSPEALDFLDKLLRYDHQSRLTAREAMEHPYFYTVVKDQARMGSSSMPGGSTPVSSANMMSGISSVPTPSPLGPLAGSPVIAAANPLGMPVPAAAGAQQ
Experimental: (§2) [L2Cu3]^6+ and [L2Zn3]^6+ were submitted to the MRC Protein Phosphorylation and Ubiquitination Unit International Centre for Kinase Profiling (University of Dundee) and tested in duplicate (at 10 μM) against a series of 140 purified human kinases in a cell-free kinase assay using ^33P ATP[55],[56]. The kinase gene IDs from the screen were then translated into common IDs (HGNC symbol) using biomaRt package[57],[58] in R[59] and R Studio[60] and used as input to the KinMap programme.

[2] = molecular target: T1, 140 purified human kinases (Homo sapiens, UniProt O15264); test: as above; assay type: biochemical; details: p38d MAPK
T1 sequence (O15264 1-365): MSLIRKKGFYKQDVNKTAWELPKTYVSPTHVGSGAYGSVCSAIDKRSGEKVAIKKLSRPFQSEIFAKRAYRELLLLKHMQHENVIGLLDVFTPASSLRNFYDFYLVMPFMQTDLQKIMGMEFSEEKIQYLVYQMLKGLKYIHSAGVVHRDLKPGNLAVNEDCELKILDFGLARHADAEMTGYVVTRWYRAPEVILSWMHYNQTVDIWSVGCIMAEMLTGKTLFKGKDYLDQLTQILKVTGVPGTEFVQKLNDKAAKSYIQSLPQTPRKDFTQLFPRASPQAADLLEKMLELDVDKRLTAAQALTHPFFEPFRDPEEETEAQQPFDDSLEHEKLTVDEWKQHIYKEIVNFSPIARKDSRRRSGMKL
Experimental: as §2

[3] = molecular target: 140 purified human kinases (Homo sapiens, UniProt O75582); test: as above; assay type: biochemical
Sequence of 140 purified human kinases (Homo sapiens, UniProt O75582) (O75582 whole entry): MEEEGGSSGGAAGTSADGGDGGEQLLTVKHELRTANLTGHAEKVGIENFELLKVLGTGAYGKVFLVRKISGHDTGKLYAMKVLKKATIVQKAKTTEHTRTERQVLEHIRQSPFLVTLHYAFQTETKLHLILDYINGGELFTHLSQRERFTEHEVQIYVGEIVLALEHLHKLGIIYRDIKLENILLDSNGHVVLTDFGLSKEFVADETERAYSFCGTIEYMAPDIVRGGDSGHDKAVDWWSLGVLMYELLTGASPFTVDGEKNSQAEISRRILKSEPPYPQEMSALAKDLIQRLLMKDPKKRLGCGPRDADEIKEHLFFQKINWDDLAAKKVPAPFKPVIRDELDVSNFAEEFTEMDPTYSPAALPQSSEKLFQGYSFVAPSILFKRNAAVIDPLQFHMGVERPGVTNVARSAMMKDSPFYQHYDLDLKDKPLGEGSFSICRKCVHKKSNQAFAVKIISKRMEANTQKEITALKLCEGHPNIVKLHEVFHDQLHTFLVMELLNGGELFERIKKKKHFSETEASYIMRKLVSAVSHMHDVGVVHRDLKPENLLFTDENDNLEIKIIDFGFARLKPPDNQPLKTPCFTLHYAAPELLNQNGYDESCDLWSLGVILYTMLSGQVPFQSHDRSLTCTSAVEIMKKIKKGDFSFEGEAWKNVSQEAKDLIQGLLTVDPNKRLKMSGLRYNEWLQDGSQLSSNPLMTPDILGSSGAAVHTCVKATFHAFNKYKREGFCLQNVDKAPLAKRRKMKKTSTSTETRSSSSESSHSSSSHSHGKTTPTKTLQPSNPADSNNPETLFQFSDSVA
Experimental: as §2

HCT116 p53-/- = test: Confocal imaging of autophagic cells (CYTO-ID); assay type: cell-based, human; details: 3.125 µM, 40 h
Experimental: Cells were seeded in Lumox chamber slides (8-well, Sarstedt) at a density of 1.25 × 10^4 cells/well (ARPE-19) or 5.625 × 10^4 cells/well (HCT116 p53^−/− and HCT116 p53^+/+). 24 h after seeding, cells were treated with 3.125 μM of [L2Cu3]^6+, [L2Zn3]^6+, [L2Mn3]^6+, or vehicle control for 40 h before removal and addition of CYTO-ID Green autophagic dye (1:500 dilution, Enzo Life Sciences) and Hoechst 3342 nuclear counter stain for 30 min at 37 °C. Media was then replaced before imaging using a Zeiss LSM880 confocal laser scanning microscope.

[4] = UV-Vis study of hydrolysis of 4-nitrophenyl phosphate; details: HEPES pH 7.4 / DMSO, blank 0.0129
Experimental: UV–Vis studies were carried out on a Cary 60 UV–Vis spectrophotometer with Thermo cycler attachment and the wavelength range of 800–250 nm was scanned every hour for 43 h whilst the solution was heated at a constant temperature of 37 °C. Progress of hydrolysation of 4-nitrophenyl phosphate to 4-nitrophenol was measured by monitoring the increase in absorption at the wavelength of 400 nm (typical for 4-nitrophenol). HEPES buffer was prepared at pH 7.4. Solutions were prepared by dissolving the ligand L (3.1 mg, 0.005 mmol) and the relevant metal salt (1.5 equivalents with respect to ligand) in DMSO (5 mL). 4-nitrophenyl phosphate (18.6 mg, 0.050 mmol) was dissolved in HEPES buffer (~10 mL, 60 mmol). These solutions were then combined and made up volumetrically to 50 mL with HEPES buffer. Where required Bu4NH2PO4 (0.5 equivalents with respect to ligand) was added to the HEPES buffer.
5. UV-Vis studies of the hydrolysis of disodium 4-nitrophenylphosphate.
UV-Vis studies were carried out on a Cary 60 UV-Vis spectrophotometer with Thermo cycler attachment and the wavelength range of 800 – 250 nm was scanned every hour for 43 hours whilst the solution was heated at a constant temperature of 37 °C. Progress of hydrolysation of 4-nitrophenyl phosphate to 4-nitrophenol was measured by monitoring the increase in absorption at the wavelength of 400 nm (typical for 4-nitrophenol). HEPES buffer was prepared at pH 7.4.
Solutions were prepared by dissolving the ligand L (3.1 mg, 0.005 mmol) and the relevant metal salt (1.5 equiv w.r.t. ligand) in DMSO (5 mL). 4 -nitrophenyl phosphate (18.6 mg, 0.050 mmol) was dissolved in HEPES buffer (~10 mL , 60 mmol) These solutions were then combined and made up volumetrically to 50 mL with HEPES buffer.
(1.5 equiv w.r.t. ligand) in DMSO (5 mL). Tetrabutylammonium phosphate (0.84 mg, 0.0025 mmol) was dissolved in HEPES buffer (~1 mL, 60 mmol) and these solutions were combined. […]

**Q.** Which results are given for `[Cu+2].[Cu+2].[Cu+2].c1ccc(-c2csc(NCCN(CCNc3nc(-c4ccccn4)cs3)CCNc3nc(-c4ccccn4)cs3)n2)nc1.c1ccc(-c2csc(NCCN(CCNc3nc(-c4ccccn4)cs3)CCNc3nc(-c4ccccn4)cs3)n2)nc1` [[L2Cu3]6+]?
**A.** ATP levels relative to vehicle control (HCT116 p53+/+; HCT116, highest concentration of 100μM): < 50%; % ATP Activity (Average) (HCT116 p53+/+; 3.125 µM complex): 75.66%; % ATP Activity (Average) (HCT116 p53+/+; 6.25 µM complex): 75.32%; % ATP Activity (Average) (HCT116 p53+/+; 12.5 µM complex): 74.21%; % ATP Activity (Average) (HCT116 p53+/+; 25 µM complex): 71.91%; % ATP Activity (Average) (HCT116 p53+/+; 50 µM complex): 61.46%; % ATP Activity (Average) (HCT116 p53+/+; 100 µM complex): 38.46%; % ATP Activity (Average) (ARPE-19; 3.125 µM complex): 91.48%; % ATP Activity (Average) (ARPE-19; 6.25 µM complex): 92.26%; % ATP Activity (Average) (ARPE-19; 12.5 µM complex): 92.93%; % ATP Activity (Average) (ARPE-19; 25 µM complex): 95.14%; % ATP Activity (Average) (ARPE-19; 50 µM complex): 85.50%; % ATP Activity (Average) (ARPE-19; 100 µM complex): 56.08%; % Inhibition Run 1 ([1]; CK2): -0.5%; % Inhibition Run 2 ([1]; CK2): 5.6%; % Inhibition, Mean ([1]; CK2): 2.55%; mean % activity ([1]; CK2): 97%; % activity ([1]; CK2, Run 1): 100.5%; % activity ([1]; CK2, Run 2): 94.4%; % Activation, Mean value [2]: 14%; % Inhibition Run 1 [2]: -9.9%; % Inhibition Run 2 [2]: -17.9%; % Inhibition, Mean [2]: -14%; mean % activity [2]: 114%; % activity ([2]; Run 1): 109.9%; % activity ([2]; Run 2): 117.9%; % Activity Run 1 ([2]; 10 µM): 109.90%; % Activity Run 2 ([2]; 10 µM): 117.90%; % Inhibition Run 1 ([3]; MSK1): 67.5%; % Inhibition Run 2 ([3]; MSK1): 74.8%; % Inhibition, Mean ([3]; MSK1): 71%; mean % activity ([3]; MSK1): 29%; % activity ([3]; MSK1, Run 1): 32.5%; % activity ([3]; MSK1, Run 2): 25.2%; induction of vacuoles / autophagy (CYTO-ID) (HCT116 p53-/-): no or little autophagy; induction of vacuoles / autophagy (CYTO-ID) (HCT116 p53-/-; listed as [L2Cu3]^6+): did not

**Q.** What does the source list for `[Mn+2].[Mn+2].[Mn+2].c1ccc(-c2csc(NCCN(CCNc3nc(-c4ccccn4)cs3)CCNc3nc(-c4ccccn4)cs3)n2)nc1.c1ccc(-c2csc(NCCN(CCNc3nc(-c4ccccn4)cs3)CCNc3nc(-c4ccccn4)cs3)n2)nc1` [[L2Mn3]6+]?
**A.** % ATP Activity (Average) (HCT116 p53+/+; 3.125 µM complex): 52.15%; % ATP Activity (Average) (HCT116 p53+/+; 6.25 µM complex): 40.82%; % ATP Activity (Average) (HCT116 p53+/+; 12.5 µM complex): 38.17%; % ATP Activity (Average) (HCT116 p53+/+; 25 µM complex): 35.09%; % ATP Activity (Average) (HCT116 p53+/+; 50 µM complex): 31.21%; % ATP Activity (Average) (HCT116 p53+/+; 100 µM complex): 28.58%; ATP levels relative to vehicle control (HCT116 p53+/+; HCT116 p53+/+, 6.25μM): < 50%; ATP levels relative to vehicle control (ARPE-19; ARPE19, 100μM, 20h): ~ 40%; % ATP Activity (Average) (ARPE-19; 3.125 µM complex): 82.98%; % ATP Activity (Average) (ARPE-19; 6.25 µM complex): 75.81%; % ATP Activity (Average) (ARPE-19; 12.5 µM complex): 71.57%; % ATP Activity (Average) (ARPE-19; 25 µM complex): 63.68%; % ATP Activity (Average) (ARPE-19; 50 µM complex): 53.48%; % ATP Activity (Average) (ARPE-19; 100 µM complex): 40.46%; induction of vacuoles / autophagy (CYTO-ID) (HCT116 p53-/-): most pronounced; induction of vacuoles / autophagy (CYTO-ID) (HCT116 p53-/-; listed as Mn^2+ complex): also induced autophagy; Concentration of 4-nitrophenol after 24 hours at 37°C [4]: 0.1185 mM

**Q.** Which “Concentration of 4-nitrophenol after 24 hours at 37°C” value [4] does the source give for `CC(=O)[O-].CC(=O)[O-].CC(=O)[O-].O=P([O-])([O-])[O-].[Zn+2].[Zn+2].[Zn+2].c1ccc(-c2csc(NCCN(CCNc3nc(-c4ccccn4)cs3)CCNc3nc(-c4ccccn4)cs3)n2)nc1.c1ccc(-c2csc(NCCN(CCNc3nc(-c4ccccn4)cs3)CCNc3nc(-c4ccccn4)cs3)n2)nc1` [[L2Zn3(PO4)]3+] here?
**A.** 0.0164 mM

— publication PMC8222254, “Self-assembly of an anion receptor with metal-dependent kinase inhibition and potent in vitro anti-cancer properties” (Nature Communications, 2021)
